In ChEMBL document CHEMBL6178015, “Discovery of a Novel Serine-Targeting Covalent Inhibitor against HCES2A for Treating Drug-induced Diarrhea and Ulcerative Colitis” (J Med Chem, 2025) one finds IC50, Ratio IC50 and Activity data, which are given here for 30 compounds.

The nature of assay [1]: Inhibition of human CES2A using fluorescein diacetate as substrate preincubated for 3 mins followed by substrate addition and measured after 30 mins by fluorescence microplate reader.
A short description of assay [2]: Inhibition of human CES1A using NLMe as substrate preincubated for 3 mins followed by substrate addition and measured after 20 mins by chemiluminescence analysis.
The species named for assay [3] is Homo sapiens. The assay can be described thus: Selectivity index, ratio of IC50 for inhibition of human CES1A to IC50 for inhibition of human CES2A.
The test system of assay [4] is Mus musculus. Description: Antiinflammatory activity against DSS-induced ulcerative colitis mouse model assessed as epithelial damage at 700 mg/kg,IG administered once daily 7 days by AB-PAS staining based analysis. The format is functional, organism-based. The following applies: time 7.0 day.
Assay [5] deals with Mus musculus. Description: Antiinflammatory activity against DSS-induced ulcerative colitis mouse model assessed as restoration of colon histology at 700 mg/kg,IG administered once daily 7 days by AB-PAS staining based analysis. The format is functional, organism-based. To be noted: time 7.0 day.
Assay [6] concerns Mus musculus. Description: Antiinflammatory activity against DSS-induced ulcerative colitis mouse model assessed as goblet cell loss at 700 mg/kg,IG administered once daily 7 days by AB-PAS staining based analysis. The format is functional, organism-based. To be noted: time 7.0 day.

Active and inactive are the calls of the source. The calls are words filed in the database; no cut-off is given here.

For `CCCCCCCCC(=O)c1cccc2oc(-c3cc(OC)ccc3OC(=O)N(C)CC)cc12`, the IC50 in assay [1] worked out at 0.625 nM; in assay [2], 4 nM. Besides, the Ratio IC50 in assay [3] turned out to be 6.4. Regarding `CCCC(=O)c1cccc2oc(-c3ccccc3N)cc12`, 11100 nM corresponded to half-maximal inhibition in assay [1] (IC50).

Compound `CCCCCCC(=O)c1cccc2oc(-c3ccccc3NC(=O)OCCCC)cc12` displayed an IC50 in assay [1] of 1260 nM.

In assay [1], `CCCCCCC(=O)c1cccc2oc(-c3cc(C)ccc3N)cc12` displayed an IC50 of 612 nM. `CCCCCCC(=O)c1cccc2oc(-c3cc(OC)ccc3N)cc12`: in assay [1], the midpoint of inhibition, the IC50, lay at 1970 nM. Compound `CCCC(=O)c1cccc2oc(-c3cc(C)ccc3N)cc12` yielded an IC50 in assay [1] of 3110 nM. Turning to `CCCCCCC(=O)c1cccc2oc(-c3ccccc3N)cc12`, in assay [1], the IC50 turned out to be 944 nM. As for `CCCCCCCCC(=O)c1cccc2oc(-c3cc(OC)ccc3OC(=O)N(C)C)cc12`, the IC50 in assay [1] amounted to 0.189 nM; in assay [2], 239 nM. In addition, the Ratio IC50 in assay [3] came out at 1260.

Compound `CCCCCCOC(=O)Nc1ccccc1-c1cc2c(C(=O)CCCCCC)cccc2o1` returned an IC50 in assay [1] above 10000 nM. Turning to `CCCCCCC(=O)c1cccc2oc(-c3ccccc3NC(=O)OCC(CC)CCCC)cc12` (stereo unspecified), in assay [1], the IC50 was 1340 nM.

In assay [1], `CCCCCCC(=O)c1cccc2oc(-c3cc(C)ccc3NC(=O)OCc3ccccc3)cc12` had an IC50 of 3640 nM. Consider `CCCCCCOC(=O)Nc1ccc(C)cc1-c1cc2c(C(=O)CCCCCC)cccc2o1`, for which the 50% inhibitory concentration (IC50) in assay [1] turned out to be 362 nM. Take `CCCC(=O)c1cccc2oc(-c3cc(C)ccc3NC(=O)OCCCl)cc12`: the IC50 in assay [1] was 983 nM.

In the case of `CCCCCCC(=O)c1cccc2oc(-c3cc(OC)ccc3OC(=O)N(C)C)cc12`, the IC50 in assay [1] came out at 0.509 nM; in assay [2] it was 22.9 nM. The Ratio IC50 in assay [3] came out at 44.8.

`C=CCOC(=O)Nc1ccc(C)cc1-c1cc2c(C(=O)CCCCCC)cccc2o1`: the half-inhibitory concentration (IC50) in assay [1] came out at 383 nM.

`CCCCCCC(=O)c1c(C)ccc2oc(-c3cc(OC)ccc3O)cc12` yielded an IC50 in assay [1] of 1.55 nM.

In assay [1], `CCCCCCCCC(=O)c1cccc2oc(-c3ccccc3N)cc12` returned an IC50 of 881 nM. Consider `CCCCCCCCC(=O)c1cccc2oc(-c3cc(OC)ccc3OC(=O)N3CCOCC3)cc12`, for which the IC50 in assay [1] is 0.542 nM; in assay [2] it was 29.2 nM. The Ratio IC50 in assay [3] turned out to be 53.9. Taken in the same sequence, the figures for `CCCCCCC(=O)c1cccc2oc(-c3cc(C)ccc3NC(=O)OCC(C)C)cc12` were 1.04 nM, above 10000 nM and above 9600. Take `CCCCCCCCC(=O)c1cccc2oc(-c3cc(OC)ccc3OC(=O)N(CC)CC)cc12`: the concentration for half-maximal inhibition (IC50) in assay [1] came out at 6.37 nM. On the same count and under the same terms, with `C=CCOC(=O)Nc1ccccc1-c1cc2c(C(=O)CCCCCC)cccc2o1` the figure was 596 nM; with `CCCCCCC(=O)c1cccc2oc(-c3cc(C)ccc3NC(=O)OCC3c4ccccc4-c4ccccc43)cc12`, 2140 nM. On to `O=C(O)c1cc(/N=N/c2ccc(S(=O)(=O)Nc3ccccn3)cc2)ccc1O`, for which the outcome in assay [4] and in assay [6] was inactive. The outcome in assay [5] was Active. In turn, `CCCCCCC(=O)c1cccc2oc(-c3cc(C)ccc3NC(=O)OCCCC)cc12` registered an IC50 in assay [1] of 623 nM.

Take `CCCCCCCCC(=O)c1cccc2oc(-c3cc(C)ccc3N)cc12`: in assay [1], the IC50 stood at 736 nM. Same read-out and setting: with `CN(C)C(=O)C(CCN1CCC(O)(c2ccc(Cl)cc2)CC1)(c1ccccc1)c1ccccc1` [LOPERAMIDE] the figure was 351 nM; with `CCCCCCC(=O)c1cccc2oc(-c3cc(C)ccc3NC(=O)OCC(CC)CCCC)cc12` (stereo unspecified), 4260 nM.

As to `CCCCCCC(=O)c1cccc2oc(-c3cc(OC)ccc3OC(=O)N3CCCC3)cc12`, the half-maximal inhibitory concentration (IC50) was 0.249 nM in assay [1] and 5.65 nM in assay [2]. Moreover, in assay [3], the Ratio IC50 was found to be 22.7.

As for `CCCCCCC(=O)c1cccc2oc(-c3ccccc3NC(=O)OCCCl)cc12`, the IC50 is 56.6 nM in assay [1] and above 10000 nM in assay [2]. The Ratio IC50 in assay [3] was above 176. In the case of `CCCCCCC(=O)c1cccc2oc(-c3ccccc3NC(=O)OCc3ccccc3)cc12`, the midpoint of inhibition in assay [1], the IC50, lay at 616 nM.

The term IC50 denotes the point on the concentration scale where inhibition reaches its midpoint. Read a low IC50 as greater potency in that assay.
